These results are taken from patent US8034928B2, “Fluorescence assays with improved sensitivity” (Wisconsin Alumni Research Foundation, priority 2003, dated 2011).

The nature of data set [1]: Stability: generation of fluorescence in PBS, DMEM or water without trigger. As to conditions: DMEM and PBS, 5 μM, no cells. It counts as physicochemical. As to the method:
The biological utility of pro-fluorophore 3 was then studied. To be useful, a latent fluorophore must remain non-fluorescent or have a small fluorescence in a biological environment. Accordingly, the accumulation of fluorescence in Dulbecco's modified Eagle's medium (DMEM) and phosphate-buffered saline (PBS) containing either fluorescein diacetate (which is a widely used pro-fluorophore) or 3 were studied.
A solution of pro-fluorophore 3 (5 μM) in 2 mL PBS was treated with PLE (0.5 μg), and the mixture was kept at room temperature for 4 h. The fluorescence excitation-emission spectra of the solution were recorded. The procedure was repeated for a solution of pro-fluorophore 3 treated in an identical manner, except for the addition of PLE.

The subject of data set [2] is HeLa cells. Nature of the data set: Fluorescence microscopy of HeLa cells incubated with pro-fluorophore in DMEM. It counts as cell-based. Particulars: 10 μM, 2 h, 37° C., unwashed cells. As to the method:
FIGS. 3B and C show unwashed HeLa cells incubated for 2 h with fluorescein diacetate (panel B; 10 μM) or 3 (panel C; 10 μM) at 37° C. in DMEM (5% CO2, 100% humidity). In FIG. 3C, the grey/white areas show the intensity of the fluorescence with the highest fluorescence shown as the lightest shade.
Fluorescence microscopy was used to determine the fate of fluorescein diacetate and pro-fluorophore 3 in DMEM containing HeLa cells.

For `CC(=O)Oc1ccc2c(c1)Oc1cc(OC(C)=O)ccc1C21OC(=O)c2ccccc21` [fluorescein diacetate], in data set [1], the “accumulation of fluorescence in medium (stability)” value is given as “became fluorescent in minutes”. Besides, the “fluorescence in HeLa cells” value in data set [2] was “much greater in the medium than in HeLa cells”.
